# According to article PMC11053681, “Gold(I) and Silver(I) Complexes Containing Hybrid Sulfonamide/Thiourea Ligands as Potential Leishmanicidal Agents” (Pharmaceutics, 2024):
# “Also recorded” adds a separate entry of the source.
# How the values were obtained:
# Leishmania infantum = assay: Leishmanicidal activity against promastigotes (resazurin); type: cell-based; conditions: for IC50: promastigote form, 24 h treatment, resazurin, read-out: IC50 L. infantum; for SI L. infantum: selectivity index = CC50 (Vero) / IC50 (L. infantum promastigotes)
# Method: (§1) The Leishmania infantum and Leishmania braziliensis strains were maintained in Schneider medium supplemented with 20% of SFB (Schneider 20%), cultivated in […] bottles and stored at 28 °C in a BOD oven. For the assays, parasites at the 5th day stationary growth phase were used.
# (§2) The promastigotes metacyclic form of Leishmania infantum and Leishmania braziliensis were first filtered with an insulin syringe to break up rosettes and, then, were isolated from the culture in the stationary phase by centrifugation of 400× g for 4 min at a temperature of 4 °C [53]. The supernatant was subjected to a new centrifugation, heavier, of 2000× g for 30 min, also at 4 °C. The supernatant was discarded and the cell pallet formed from this centrifugation was resuspended in 10 mL of 10% Schneider medium. The process ensured the removal of cellular debris and dead parasites, as well as possible crystals from the culture medium, so that the quality of the experiment was guaranteed. Then, the promastigotes were diluted to 1:10 in paraformaldehyde (PFA) for counting in a Neubauer Chamber, with the concentrations adjusted for each experiment.
# (§3) An amount of 1 × 10^7 parasites per well was used. The parasites were plated in 96-well plates. Then, the compounds were added in triplicate, starting at a concentration of 500 µM, with serial dilutions being performed up to a concentration of 3.9 µM [53]. The treatment was carried out for 24 h and, after adding 5 µL of resazurin, the fluorescence was read using a Enspire model spectrofluorometer (Perkin-Elmer, Waltham, MA, USA).
# Leishmania braziliensis = assay: as above; type: cell-based; conditions: for IC50: promastigote form, 24 h treatment, resazurin, read-out: IC50 L. braziliensis; for SI L. braziliensis: selectivity index = CC50 (Vero) / IC50 (L. braziliensis promastigotes)
# Method: as §1, §2, §3
# Vero cells = assay: Cytotoxicity assay on Vero cells (resazurin); type: cell-based, African green monkey; conditions: 24 h treatment
# Method: For the experiment, Vero cells (ATCC CRL-1587) were used in Roswell Parl Memorial Institute (RPMI) medium with 10% fetal bovine serum (FBS) (RPMI 10%) and 20 μg/mL of Gentamicin. They were cultivated in culture bottles of […] and kept in an oven at 37 °C with 5% carbon dioxide (CO2). When picked or used on the day of the experiment, the cells were detached from the wall of the bottles with saline and 1X trypsin/EDTA. To find out how many cells there were in the bottle, it was diluted in Turkey liquid and then we proceeded with the counting in the Neubauer Chamber to calculate the desired concentrations. The Vero cells were plated at […] cells per well, in 96-well plates, and kept in an incubator with 5% CO2 at 37 °C for 24 h. Then, the compounds were added in triplicate, starting at a concentration of 500 µM, with serial dilution being performed up to a concentration of 3.9 µM [54]. The treatment was carried out for 24 h, and, after adding 5 µL of resazurin, the fluorescence was read using a spectrofluorometer (EnSpire Perkin-Elmer, Waltham, MA, USA).
# [1] = tested on: RAW macrophages infected with Leishmania infantum; assay: Infectivity test / infection rate in RAW macrophages; type: cell-based; conditions: three concentrations (below IC50, IC50, above IC50), 24 h treatment
# Method: For the infection of RAW macrophages adhered to the plates, we used parasites in the promastigote form of Leishmania infantum, in the stationary phase, in a ratio of 10:1 (promastigotes/macrophages).
# Macrophages were plated in the amount of 5 × 10^4 cells per well, in 96-well plates, which were kept in a CO2 oven at 37 °C for 24 h. The parasites were plated at a concentration of 10:1. The plates were kept in a CO2 oven for 12 h until the parasites infected the cells. […] Plates were fixed with paraformol for further evaluation. Plaques were evaluated by counting parasites within 200 cells under the EVOS Cell Imaging System (Thermo Scientific, Waltham, MA, USA) microscope by staining with propidium iodide.
# In view of the data obtained, the six most promising compounds (HL1^Ch, HL2^Ph, Ag3, Ag4, Ag6 and Au2) were selected for carrying out the infection rate test against the L. infantum parasite. […] This test was performed at four stages. The first step determined the percentage of the amount in 200 infected macrophages per parasite, the second determined the percentage of parasites that infects 100 cells/macrophages, the third determined the average percentage of parasites that infects 200 cells/macrophages and, finally, the fourth step indicated the infection rate, that is, the result of the amount of Leishmania per macrophage (obtained from the third step) multiplied by the percentage of infected macrophages. Figure 5 presents the graphs of the infection rates, while the other graphs can be found in Figure S7.4.
# [2] = Solubility in buffer for the fluorescence experiments; type: physicochemical; conditions: Tris-HCl buffer
# Method: The compounds were solubilized in DMSO and then we made successive dilutions in a Tris-HCl 25 mmol L^−1 buffer, pH 8.0, containing 100 mmol L^−1 of NaCl. For all experiments, the final concentration of DMSO was kept constant and equal to 2.5%. Solutions with increasing concentrations of ligand and constant concentration of LbOYE (1 µmol L^−1) were prepared, which were kept at 25 °C for a period of 1h before acquisition of fluorescence emission spectra.
# After the synthesis and structural characterization of the compounds, studies of interaction of the compounds and the recombinant LbOYE were carried out by fluorescence measurements.
SMILES,IC50 (Leishmania infantum) [µM],SI L. infantum (Leishmania infantum),IC50 (Leishmania braziliensis) [µM],SI L. braziliensis (Leishmania braziliensis),CC50 (Vero cells) [µM],"Infection rate of L. infantum in macrophages, in words [1]","Solubility in buffer at the concentrations for the fluorescence experiments, in words [2]"
"Cc1ccc(S(=O)(=O)NNC(NC2CCCCC2)=[S][Ag+][S]=C(NNS(=O)(=O)c2ccc(C)cc2)NC2CCCCC2)cc1.O=[N+]([O-])[O-] [Ag1, [Ag(HL1^Ch)2]NO3]",57.42 ± 0.028,0.129,50.15 ± 0.02,0.15,7.4,,
"Cc1ccc(S(=O)(=O)NNC(Nc2ccccc2)=[S][Ag+][S]=C(NNS(=O)(=O)c2ccc(C)cc2)Nc2ccccc2)cc1.O=[N+]([O-])[O-] [Ag2, [Ag(HL2^Ph)2]NO3]",280.5 ± 0.167,0.33,183.7 ± 0.027,0.50,92.1,,
"Cc1ccc(S(=O)(=O)NNC(Nc2ccc(Cl)cc2)=[S][Ag+][S]=C(NNS(=O)(=O)c2ccc(C)cc2)Nc2ccc(Cl)cc2)cc1.O=[N+]([O-])[O-] [Ag4, [Ag(HL4^ClPh)2]NO3]",72.17 ± 0.036,,84.62 ± 0.116,>5.91,> 500,did not show a promising infection rate,
"Cc1ccc(S(=O)(=O)NNC(Nc2ccc([N+](=O)[O-])cc2)=[S][Ag+][S]=C(NNS(=O)(=O)c2ccc(C)cc2)Nc2ccc([N+](=O)[O-])cc2)cc1.O=[N+]([O-])[O-] [Ag5, [Ag(HL5^NO2Ph)2]NO3]",78.79 ± 0.091,,90.73 ± 0.236,5.44,493,,
"C=CCNC(NNS(=O)(=O)c1ccc(C)cc1)=[S][Ag+][S]=C(NCC=C)NNS(=O)(=O)c1ccc(C)cc1.O=[N+]([O-])[O-] [Ag6, [Ag(HL6^Al)2]NO3]",78.59 ± 0.605,>6.36,305.2 ± 0.032,>1.64,> 500,able to inhibit the parasite infection inside the cells even at lower concentrations than that determined by their IC50 values; also recorded: able to inhibit the parasite infection even at lower concentrations than that of their IC50 values,not soluble in the buffer used for the experiment
"Cc1ccc(S(=O)(=O)NNC(Nc2ccccc2)=[S][Au+][S]=C(NNS(=O)(=O)c2ccc(C)cc2)Nc2ccccc2)cc1.[Cl-] [Au2, [Au(HL2^Ph)2]Cl]",41.69 ± 0.21,7.09,143.2 ± 0.085,2.06,296,able to inhibit the parasite infection inside the cells even at lower concentrations than that determined by their IC50 values; also recorded: able to inhibit the parasite infection even at lower concentrations than that of their IC50 values,
"Cc1ccc(S(=O)(=O)NNC(Nc2ccc(F)cc2)=[S][Au+][S]=C(NNS(=O)(=O)c2ccc(C)cc2)Nc2ccc(F)cc2)cc1.[Cl-] [Au3, [Au(HL3^FPh)2]Cl]",173.9 ± 0.087,0.17,194.9 ± 0.063,0.15,28.8,,
"Cc1ccc(S(=O)(=O)NNC(Nc2ccc([N+](=O)[O-])cc2)=[S][Au+][S]=C(NNS(=O)(=O)c2ccc(C)cc2)Nc2ccc([N+](=O)[O-])cc2)cc1.[Cl-] [Au5, [Au(HL5^NO2Ph)2]Cl]",295.5 ± 0.259,0.198,284 ± 0.259,0.21,58.6,,
"C=CCNC(NNS(=O)(=O)c1ccc(C)cc1)=[S][Au+][S]=C(NCC=C)NNS(=O)(=O)c1ccc(C)cc1.[Cl-] [Au6, [Au(HL6^Al)2]Cl]",62.54 ± 0.151,1.24,5554 ± 1.37,0.01,77.5,,not soluble in the buffer used for the experiment
